Data published in paper PMC11214487, “YZL-51N functions as a selective inhibitor of SIRT7 by NAD^+ competition to impede DNA damage repair” (iScience, 2024).

Tests used:
SIRT1 = biological target: T1, SIRT1 (Homo sapiens, UniProt Q96EB6); assay: Cellular thermal shift assay in HCT116 cell lysates; type: binding; conditions: 20 μM
T1 construct: endogenous in cells; host or cells: HCT116
T1 sequence (Q96EB6 1-747): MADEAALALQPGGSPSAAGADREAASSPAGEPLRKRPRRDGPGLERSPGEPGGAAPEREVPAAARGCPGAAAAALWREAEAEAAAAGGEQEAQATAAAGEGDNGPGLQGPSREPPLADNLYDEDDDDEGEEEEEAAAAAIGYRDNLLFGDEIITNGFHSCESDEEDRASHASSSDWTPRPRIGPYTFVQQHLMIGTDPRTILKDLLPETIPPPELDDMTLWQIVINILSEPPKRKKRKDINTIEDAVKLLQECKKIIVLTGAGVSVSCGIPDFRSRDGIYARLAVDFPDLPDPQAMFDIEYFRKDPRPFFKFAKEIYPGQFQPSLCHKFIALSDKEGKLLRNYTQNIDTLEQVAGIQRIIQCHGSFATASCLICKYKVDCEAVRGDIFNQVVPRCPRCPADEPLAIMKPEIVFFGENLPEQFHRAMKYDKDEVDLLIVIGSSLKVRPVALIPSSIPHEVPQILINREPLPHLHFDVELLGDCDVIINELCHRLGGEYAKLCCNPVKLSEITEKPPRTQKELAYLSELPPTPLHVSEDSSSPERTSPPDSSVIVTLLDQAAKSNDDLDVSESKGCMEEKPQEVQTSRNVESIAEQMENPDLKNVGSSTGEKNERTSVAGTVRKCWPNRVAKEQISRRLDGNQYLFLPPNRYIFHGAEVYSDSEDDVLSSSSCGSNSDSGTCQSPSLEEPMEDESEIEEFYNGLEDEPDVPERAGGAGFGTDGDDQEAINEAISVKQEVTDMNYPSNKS
Experimental: (§1) Cellular thermal shift assays were performed according to previously reported methods with some modifications.[66] Briefly, HCT116 cells were lysed with RIPA buffer and incubated with 20 μM YZL-51N or DMSO for 1 h on ice. Subsequently, cell lysates were divided into 70 μL aliquots and heated individually at different temperatures for 4 min following by cooling on ice. The heated lysates were centrifuged, and 50 μL supernatants were taken for SDS-PAGE and immunoblotting analysis with the indicated antibodies.

SIRT7 = biological target: T2, SIRT7 (Homo sapiens, UniProt Q9NRC8); assay: as above; type: binding; conditions: 20 μM
T2 construct: His-tagged full length SIRT7 protein expression from BL21 bacterial cells; His; made in house; host or cells: E. coli BL21
T2 sequence (Q9NRC8 1-400): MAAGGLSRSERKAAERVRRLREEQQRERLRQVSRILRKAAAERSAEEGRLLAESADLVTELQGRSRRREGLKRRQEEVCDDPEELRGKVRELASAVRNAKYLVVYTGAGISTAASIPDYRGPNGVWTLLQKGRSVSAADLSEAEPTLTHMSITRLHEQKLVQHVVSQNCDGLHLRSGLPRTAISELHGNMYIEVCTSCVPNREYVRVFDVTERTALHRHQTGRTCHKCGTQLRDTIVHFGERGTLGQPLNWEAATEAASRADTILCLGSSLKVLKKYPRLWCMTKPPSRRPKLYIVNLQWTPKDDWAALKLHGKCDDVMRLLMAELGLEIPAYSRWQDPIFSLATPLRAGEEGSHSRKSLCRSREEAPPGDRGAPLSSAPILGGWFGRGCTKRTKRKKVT
Experimental: as §1

Compound: COC(=O)/C(=C\C(=O)c1ccc(O)c(O)c1)c1ccc(O)c(O)c1 [YZL-51N]
- Effect on the melting curve (SIRT1): no obvious effect
- Shift in the melting curve (SIRT7): 5.2 °C
